Data: ChEMBL document CHEMBL5143711, “Glenthmycins A-M: Macrocyclic Spirotetronate Polyketide Antibacterials from the Australian Pasture Plant-Derived Streptomyces sp. CMB-PB041” (J Nat Prod, 2022)

Tests used:
Staphylococcus aureus [1] = assay: Antibacterial activity against Staphylococcus aureus ATCC 25923 incubated for 16 to 24 hrs by broth microdilution based spectrophotometric analysis; format: functional, organism-based
Enterococcus faecalis = assay: Antibacterial activity against Enterococcus faecalis incubated for 16 to 24 hrs by broth microdilution based spectrophotometric analysis; format: functional, organism-based
Staphylococcus aureus [2] = assay: Antibacterial activity against methicillin-resistant Staphylococcus aureus ATCC 43300 incubated for 16 to 24 hrs by broth microdilution based spectrophotometric analysis; format: functional, organism-based
Staphylococcus aureus [3] = assay: Antibacterial activity against methicillin-resistant Staphylococcus aureus ATCC 33591 incubated for 16 to 24 hrs by broth microdilution based spectrophotometric analysis; format: functional, organism-based
Enterococcus faecium = assay: Antibacterial activity against vancomycin-resistant Enterococcus faecium incubated for 16 to 24 hrs by broth microdilution based spectrophotometric analysis; format: functional, organism-based
[4] = Cytotoxicity against human NCI-H460 cells and measured after 48 hrs by MTT assay; format: toxicity, cell-based
[5] = Cytotoxicity against human SW-620 cells and measured after 48 hrs by MTT assay; format: toxicity, cell-based
Candida albicans = assay: Antifungal activity against Candida albicans ATCC 10231 incubated for 16 to 24 hrs by broth microdilution based spectrophotometric analysis; format: functional, organism-based
Escherichia coli = assay: Antibacterial activity against Escherichia coli ATCC 11775 incubated for 16 to 24 hrs by broth microdilution based spectrophotometric analysis; format: functional, organism-based
[6] = test system: Mycobacterium tuberculosis; assay: Antibacterial activity against Mycobacterium tuberculosis H37Ra ATCC 25177 incubated for 16 to 24 hrs by broth microdilution based spectrophotometric analysis; format: functional, organism-based

| SMILES | IC50 (Staphylococcus aureus [1]) | IC50 (Enterococcus faecalis) | IC50 (Staphylococcus aureus [2]) | IC50 (Staphylococcus aureus [3]) | IC50 (Enterococcus faecium) | IC50 at 48 h [4] | IC50 at 48 h [5] | IC50 (Candida albicans) | IC50 (Escherichia coli) | IC50 [6] |
| --- | --- | --- | --- | --- | --- | --- | --- | --- | --- | --- |
| CCCCCCCCCCCC(=O)O[C@H]1CC[C@H](C)[C@@H]2[C@@H]1C=C(C)[C@H]1/C(C)=C/CC/C(C)=C/[C@]3(C)C=C(C)[C@H](C)C[C@]34OC(=O)C(=C4O)C(=O)[C@@]21C | > 30 µM | > 30 µM | > 30 µM | > 30 µM | > 30 µM |  |  |  |  |  |
| CC1=C[C@H]2[C@@H]([C@@H](C)CC[C@@H]2O[C@@H]2O[C@H](C)[C@@H](O)[C@@H](O)[C@H]2O)[C@]2(C)C(=O)C3=C(O)[C@@]4(C[C@@H](C)C(C(=O)O)=C[C@@]4(C)/C=C(\C)CC/C=C(\C)[C@H]12)OC3=O | > 30 µM | > 30 µM | > 30 µM | > 30 µM | > 30 µM |  |  |  |  |  |
| COc1cc(C)c(C(=O)O[C@H]2[C@@H](O)[C@@H](O)[C@H](O[C@H]3CC[C@H](C)[C@@H]4[C@@H]3C=C(C)[C@H]3/C(C)=C/CC/C(C)=C/[C@]5(C)C=C(C(=O)O)[C@H](C)C[C@]56OC(=O)C(=C6O)C(=O)[C@@]43C)O[C@@H]2C)c(O)c1 | > 30 µM | > 30 µM | > 30 µM | > 30 µM | > 30 µM | > 30 µM | > 30 µM | > 30 µM | > 30 µM | > 30 µM |
| CC(=O)O[C@H]1CC[C@H](C)[C@@H]2[C@@H]1C=C(C)[C@H]1/C(C)=C/CC/C(C)=C/[C@@H]3C=C(C(=O)O)[C@H](C)C[C@]34OC(=O)C(=C4O)C(=O)[C@@]21C | > 30 µM | > 30 µM | > 30 µM | > 30 µM | > 30 µM |  |  |  |  |  |
| CCCCC(=O)O[C@H]1CC[C@H](C)[C@@H]2[C@@H]1C=C(C)[C@H]1/C(C)=C/CC/C(C)=C/[C@]3(C)C=C(C)[C@H](C)C[C@]34OC(=O)C(=C4O)C(=O)[C@@]21C | 0.2 µM | 0.5 µM | 1.6 µM | 1.4 µM | 1.6 µM |  |  |  |  |  |
| CC(=O)O[C@H]1CC[C@H](C)[C@@H]2[C@@H]1C=C(C)[C@H]1/C(C)=C/CC/C(C)=C/[C@]3(C)C=C(C(=O)O)[C@H](C)C[C@]34OC(=O)C(=C4O)C(=O)[C@@]21C | > 30 µM | > 30 µM | > 30 µM | > 30 µM | > 30 µM |  |  |  |  |  |
| COc1cc(C)c(C(=O)O[C@H]2[C@@H](O)[C@H](O[C@H]3CC[C@H](C)[C@@H]4[C@@H]3C=C(C)[C@H]3/C(C)=C/CC/C(C)=C/[C@]5(C)C=C(C(=O)O)[C@H](C)C[C@]56OC(=O)C(=C6O)C(=O)[C@@]43C)O[C@H](C)[C@H]2O)c(O)c1 | 23.2 µM | 4 µM | 7.3 µM | 12.2 µM | 13.1 µM | > 30 µM | > 30 µM | > 30 µM | > 30 µM | > 30 µM |
| COc1cc(C)c(C(=O)N[C@@H]2[C@@H](C)O[C@@H](O[C@H]3CC[C@H](C)[C@@H]4[C@@H]3C=C(C)[C@H]3/C(C)=C/CC/C(C)=C/[C@]5(C)C=C(C(=O)O)[C@H](C)C[C@]56OC(=O)C(=C6O)C(=O)[C@@]43C)[C@H](O)[C@]2(C)O)c(O)c1 | 11.9 µM | 7.3 µM | 9.1 µM | 2.2 µM | 9.5 µM | > 30 µM | > 30 µM | > 30 µM | > 30 µM | > 30 µM |
| COc1cc(C)c(C(=O)O[C@H]2[C@@H](O)[C@@H](O)[C@H](O[C@H]3CC[C@H](C)[C@@H]4[C@@H]3C=C(C)[C@H]3/C(C)=C/CC/C(C)=C/[C@]5(C)C=C(C(=O)O)[C@H](C)C[C@]56OC(=O)C(=C6O)C(=O)[C@@]43C)O[C@@H]2C)c(OC)c1 | 4.9 µM | 6.2 µM | 3.9 µM | 2.3 µM | 3.2 µM | > 30 µM | > 30 µM | > 30 µM | > 30 µM | > 30 µM |
| COc1cc(C)c(C(=O)N[C@@H]2[C@@H](C)O[C@@H](O[C@H]3CC[C@H](C)[C@@H]4[C@@H]3C=C(C)[C@H]3/C(C)=C/CC/C(C)=C/[C@@H]5C=C(C(=O)O)[C@H](C)C[C@]56OC(=O)C(=C6O)C(=O)[C@@]43C)[C@H](O)[C@]2(C)O)c(O)c1 | 6.4 µM | 5.7 µM | 4.4 µM | 1.9 µM | 5.2 µM | > 30 µM | > 30 µM | > 30 µM | > 30 µM | > 30 µM |
| COc1cc(C)c(C(=O)O[C@H]2[C@@H](O)[C@H](O[C@H]3CC[C@H](C)[C@@H]4[C@@H]3C=C(C)[C@H]3/C(C)=C/CC/C(C)=C/[C@@H]5C=C(C(=O)O)[C@H](C)C[C@]56OC(=O)C(=C6O)C(=O)[C@@]43C)O[C@H](C)[C@H]2O)c(O)c1 | 8.4 µM | 8.9 µM | 7.9 µM | 5.8 µM | 2.9 µM | > 30 µM | > 30 µM | > 30 µM | > 30 µM | > 30 µM |
| COc1cc(C)c(C(=O)O[C@H]2[C@@H](O)[C@@H](O)[C@H](O[C@H]3CC[C@H](C)[C@@H]4[C@@H]3C=C(C)[C@H]3/C(C)=C/CC/C(C)=C/[C@@H]5C=C(C(=O)O)[C@H](C)C[C@]56OC(=O)C(=C6O)C(=O)[C@@]43C)O[C@@H]2C)c(O)c1 | 15.3 µM | 3.1 µM | 6.3 µM | 8.3 µM | 5.4 µM | > 30 µM | > 30 µM | > 30 µM | > 30 µM | > 30 µM |
| CC1=C[C@H]2[C@@H]([C@@H](C)CC[C@@H]2O)[C@]2(C)C(=O)C3=C(O)[C@@]4(C[C@@H](C)C(C(=O)O)=C[C@H]4/C=C(\C)CC/C=C(\C)[C@H]12)OC3=O | > 30 µM | > 30 µM | > 30 µM | > 30 µM | > 30 µM |  |  |  |  |  |
| CC1=C[C@H]2[C@@H]([C@@H](C)CC[C@@H]2O)[C@]2(C)C(=O)C3=C(O)[C@@]4(C[C@@H](C)C(C(=O)O)=C[C@@]4(C)/C=C(\C)CC/C=C(\C)[C@H]12)OC3=O | > 30 µM | > 30 µM | > 30 µM | > 30 µM | > 30 µM |  |  |  |  |  |
| COc1cccc(OC)c1C(=O)N[C@@H]1C(=O)N2[C@@H]1SC(C)(C)[C@@H]2C(=O)O [METHICILLIN] | < 10 µM |  | > 10 µM | > 10 µM |  |  |  |  |  |  |
| CN[C@H](CC(C)C)C(=O)N[C@H]1C(=O)N[C@@H](CC(N)=O)C(=O)N[C@H]2C(=O)N[C@H]3C(=O)N[C@H](C(=O)N[C@H](C(=O)O)c4cc(O)cc(O)c4-c4cc3ccc4O)[C@H](O)c3ccc(c(Cl)c3)Oc3cc2cc(c3O[C@@H]2O[C@H](CO)[C@@H](O)[C@H](O)[C@H]2O[C@H]2C[C@](C)(N)[C@H](O)[C@H](C)O2)Oc2ccc(cc2Cl)[C@H]1O [VANCOMYCIN] |  | < 10 µM |  |  | > 10 µM |  |  |  |  |  |
